Test system: mESC Bmi1-luciferase reporter, firefly/renilla ratio, 24 h
Experiment: Bmi1-luciferase reporter activators in mESC, dose response, esBAF inhibitor project, mouse embryonic stem cells, cherry-pick (AID 651717);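 also: luciferase knocked into Bmi1 locus with EF-1a renilla as cell number control; rising ratio signals esBAF inhibition which derepresses Bmi1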

Compound	AC40
O=C(c1csc(Nc2ccccc2Cl)n1)N1CCCC1	1.07 µM
CC(=O)O/N=C(\N)c1ccc(-c2csnn2)cc1	29.5 µM
O=C(O)c1ccc2noc(-c3ccccc3)c2c1	1.54 µM
CN(CC(=O)Nc1cccc(F)c1)C(=O)c1sc2ccccc2c1Cl	23.3 µM
CO[C@H]1CN(C)C(=O)c2ccc(NC(=O)Nc3ccc4c(c3)OCO4)cc2OC[C@@H](C)NC[C@H]1C	3.55 µM
CCC1CCCCN1C(=O)c1ccc2nc(Cc3ccc(OC)cc3)oc2c1 (stereo not drawn)	3.04 µM
Cc1ccc(Cl)cc1-c1cc(C(=O)Nc2ccc(F)cc2)[nH]n1	4.92 µM
Cc1cc2ncn(C(=O)N3CCC(C)CC3)c2cc1C	7.84 µM
O=C(NC1CCCCCCC1)c1c(O)c2ccccc2[nH]c1=O	2.19 µM
COc1ccc(-c2cc3cc(OC)c(OC)cc3cn2)cc1	6.22 µM
COc1ccc2nc3sc(C(=O)NCCCN4CCc5ccccc5C4)cc3cc2c1	11.9 µM
CCSc1ccc(/C(N)=N/OC(=O)c2cccs2)cn1	8.66 µM
CN(Cc1nccn1C)C(=O)c1ccc2nc(Cc3ccccc3F)oc2c1	5.37 µM
Cc1cccc(OCc2nc3ccccc3n2C)c1	6.7 µM
O=C(c1ccc2ccccc2c1)N1CCN(Cc2ccccc2)CC1	9.83 µM
COc1ccc(NC(=O)O/N=C/c2ccccc2)cc1	5.24 µM
Cc1noc(C)c1COC(=O)c1cc(C)n(-c2ccccc2)c1C	10 µM
O=C(CCc1ccccc1)Nc1ccc(F)cc1F	7.22 µM
Cc1ccc(C(=O)NNC(=O)c2ccc3ccccc3c2)cc1	7.86 µM
CC(=O)n1nc(-c2ccccc2)nc1NCc1ccc(N(C)C)cc1	3.41 µM
Clc1ccc(C=NN2CCCCCC2)cc1	0.983 µM

Compound	AC40
Oc1ccc(-c2nnc(SCc3ccccc3)o2)cc1	7.97 µM
O=C(NCCc1ccccc1)c1nccc2ccccc12	6.84 µM
CC(=O)N1CC2(CC(c3ccccc3F)=NO2)CN1c1ccc(Cl)cc1 (stereo not drawn)	19.9 µM
COc1ccc2c(=O)c(-c3ccc(OC)c(OC)c3)coc2c1	2.69 µM
O=C(OCc1ccccc1)N1CCC2CC1c1cc(/C=C/CCCSc3ncccn3)ccc12 (stereo not drawn)	12.2 µM
O=c1cc(-c2ccccc2Cl)oc2cc(O)cc(O)c12	12 µM
COc1ccc(OCc2cc(C(=O)N(Cc3nccn3C)C(C)C)no2)c2ccccc12	3.93 µM
COc1ccc2c(c1OC)C(=O)N1c3ccccc3SC21 (stereo not drawn)	0.438 µM
Cc1ccc(Nc2cccccc2=O)cc1	3.88 µM
CN(C)c1ccc(N=Cc2nc(-c3ccccc3)oc2OC(=O)c2cccc(Br)c2)cc1	1.2 µM
CC(C)c1ccc(NC(=O)c2ccc3snnc3c2)cc1	3.23 µM
O=c1c2ccccc2nnn1CSc1nnnn1-c1ccccc1	9.13 µM
COc1cccc(NC(=O)N2CCc3nc(Nc4ccc(C(C)C)cc4)ncc3C2)c1	29.9 µM
CC(=O)Nc1cc2c3c(cccc3c1)-c1ccccc1-2	5.23 µM
O/N=C\c1cnc(N2CCN(c3ccccc3)CC2)s1	2.47 µM
O=C(CC1CCCC1)Nc1ccc(Br)cc1	16 µM
COc1ccc(Cc2nnc(NC(=O)c3ccc(OC)cc3OC)s2)cc1	12.5 µM
CCn1c(SCc2ccccc2Cl)nc2ccccc21	5.49 µM
CCc1sc(C(=O)N2CCN(CC(=O)Nc3cccc(F)c3)CC2)cc1C	3.04 µM
CC(=O)c1ccc(OCc2cc(C(=O)N(C)Cc3ccccn3)no2)cc1	6.33 µM
CCCCc1nc2cc(C(=O)N3CCN(c4nc(C)cnc4C)CC3)ccc2o1	2.43 µM

Compound	AC40
COc1ccc(CNC(=O)c2ccc3ccccc3n2)cc1	29.4 µM
CSc1nnc(NC(=O)C23CC4CC(CC(C4)C2)C3)s1	6.47 µM
Cc1cc2oc(=O)cc(CN3CCC(C)CC3)c2cc1Cl	9.54 µM
O=C(COC(=O)c1cccc(S(=O)(=O)N2CCOCC2)c1)Nc1nc(-c2ccccc2Cl)cs1	16.2 µM
COC(=O)c1ccc(COC(=O)CNC(=O)c2ccc(OC)cc2)cc1	6.87 µM
COc1ccc(C(=O)/C=C(\C)Nc2ccc3c(c2)OCO3)cc1	1.85 µM
CCOC(=O)C1=C(CSc2nc(-c3ccccc3)ccc2C#N)OC(N)=C(C#N)C1c1ccc(OC)cc1 (stereo not drawn)	6.12 µM
CC(=O)Nc1ccc(-c2nnc(SCC(=O)Nc3ccc4c(c3)oc3ccccc34)n2C)cc1	6.97 µM
O=C(Cc1ccccc1F)Nc1nc(-c2ccc(F)c(F)c2)cs1	9.65 µM
Oc1ccc(-c2nccc(-c3ccccn3)n2)cc1	3.66 µM
O=C(CN1CCCCCC1)Nc1ccc(Br)cc1Br	8.51 µM
CN(C)c1ccc(-c2csc(C(O)c3ccccc3)n2)cc1 (stereo not drawn)	0.311 µM
Cc1cccc(NC(=O)Nc2cccc(F)c2)n1	8.39 µM
COc1ccc(N=Cc2c(O)[nH]c3ccccc23)cc1OC	3.05 µM
CC(=O)c1ccc(OCc2ccccc2)c(C)c1O	9.35 µM
OCc1c(OCc2cccc(F)c2)ccc2ccccc12	7.24 µM
Clc1ccccc1C=NNc1ccccn1	2.27 µM
Cc1nc(-c2ccc(Cl)cc2)sc1C1(C)CC(c2cccnc2)=NO1 (stereo not drawn)	5.57 µM
Cc1ccccc1NC(=O)c1ccc2c(c1)N(C)CCS2	3.39 µM
COc1ccc(/C=N/Nc2nc(C)nc(N)n2)cc1	15.5 µM
Clc1ccc(OCc2nc(-c3ccncc3)no2)cc1	10.8 µM

Reference: PubChem BioAssay AID651717 (Broad Institute, 2012)
